US20240408169A1 (priority 2023, published 2024)
Read-outs that look alike come from different tables or passages of the source. *1 amine or outer side, *2 acyl side, *3 side chain or, on linkers, in order; H or OH if unused. Where a SMILES comes first, the peptide text is derived from it. Bridges are numbered along the chain shown (N, C = ends). [ ]: non-standard residue; d: D form. The star is where a group is joined. X172 = CC(=O)N1CC=C(c2ccc(F)cc2C[C@@H](C(=O)[*:2])N(C)[*:1])CC1; X123 = CN([C@@H](Cc1cc(Cl)ccc1-c1ccc[nH]c1=O)C(=O)[*:2])[*:1]; X26 = CN([C@@H](Cc1cc(F)ccc1-c1cnn(C2CC2)c1)C(=O)[*:2])[*:1]; NMe3Pal(2-OiBu,5-Cl) = CN[C@@H](Cc1cc(Cl)cnc1OCC(C)C)C(=O)O; NMehhhLys(Me) = CN([C@@H](CCCCCCCN(C)[*:3])C(=O)[*:2])[*:1]; X139 = Cc1[nH]ncc1-c1ccc(Cl)cc1C[C@@H](C(=O)[*:2])N(C)[*:1]; X180 = CN([C@@H](Cc1cc(F)ccc1-c1cnn2c1CCC2)C(=O)[*:2])[*:1]; X135 = CN([C@@H](Cc1cc(Cl)ccc1-c1cn(C)cn1)C(=O)[*:2])[*:1]; X168 = Cc1ncc(-c2ccc(Cl)cc2C[C@@H](C(=O)[*:2])N(C)[*:1])o1; X174 = CN([C@@H](Cc1cc(Cl)cnc1-c1cnn(C)c1)C(=O)[*:2])[*:1]; X188 = CN([C@@H](Cc1cc(Cl)ccc1-c1ccn(C)n1)C(=O)[*:2])[*:1]; X112 = CN([C@@H](Cc1cc(F)ccc1-c1cnn(C)c1)C(=O)[*:2])[*:1]; X131 = CN([C@@H](Cc1cc(F)cnc1-c1cnn(C)c1)C(=O)[*:2])[*:1]; X22 = CN([C@@H](Cc1cc(Cl)ccc1-c1cnn(C)c1)C(=O)[*:2])[*:1]; X154 = Cc1oncc1-c1ccc(Cl)cc1C[C@@H](C(=O)[*:2])N(C)[*:1]; X199 = CN([C@@H](Cc1cc(Cl)ccc1C1=CCOC1)C(=O)[*:2])[*:1]; NMe(hhhLys) = CN([C@@H](CCCCCCCN[*:3])C(=O)[*:2])[*:1]; Oxane2carbonyl(2R-CF3) = O=C([C@@]1(C(F)(F)F)CCCCO1)*; Cyclobutanecarbonyl(1-CF3) = O=C(C1(C(F)(F)F)CCC1)*; cBuCO(3,3-F2-1-CF3) = O=C(C1(C(F)(F)F)CC(F)(F)C1)*; Pro(trans-4-F) = O=C(O)[C@@H]1C[C@@H](F)CN1; Pivaloyl(3,3,3-F3) = CC(C)(C(=O)*)C(F)(F)F; Gly(cPr) = N[C@H](C(=O)O)C1CC1

Legend:
CyclinA2/CDK2 = target: T1, CyclinA2/CDK2 (Homo sapiens, UniProt P20248); assay: Fluorescence Polarization (FP) competitive binding assay, Cyclin A2/Cdk2;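 note: plates equilibrated two hours at room temperature before polarization reading, IC50 fitted from eight-concentration compound titration curves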
T1 construct: purchased CRELUX Protein Services

CyclinB1/CDK1 = target: T2, CyclinB1/CDK1 (Homo sapiens, UniProt P14635); assay: Fluorescence Polarization (FP) competitive binding assay, Cyclin B1/Cdk1;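 note: fluorescence polarization read after equilibration at room temperature, with IC50 taken from serially diluted dose-response curves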
T2 construct: purchased Eurofins, discovery 14-450

CyclinE1/CDK2 = target: T3, CyclinE1/CDK2 (Homo sapiens, UniProt P24864); assay: Fluorescence Polarization (FP) competitive binding assay, Cyclin E1/Cdk2;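 note: readings taken after two-hour equilibration at room temperature in HEPES buffer with NaCl, DTT, NP-40 and BSA, IC50 fitted from eight-concentration serial dilution series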
T3 construct: purchased Eurofins, discovery 14-475

NCI-H1048 cells = assay: MTT proliferation assay, NCI-H1048; assay type: cell-based; conditions: 5 days compound exposure, 1:3 serial dilution starting at 10 μM;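 note: Dose-response in 96-well plates over 8 or 10 concentration points, with exposure spanning 3-4 cell doublings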
OVCAR3 cells = assay: MTT proliferation assay, OVCAR3; assay type: cell-based; conditions: 5 days compound exposure, 1:3 serial dilution starting at 10 μM;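 note: compound given as an 8- or 10-point series, one day after plating, with exposure covering roughly 3-4 cell doublings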
[1] = read-out: Cyclin A FP IC50, 8 nM Cyclin A2/Cdk2, 2 nM FAM probe, average of 2-3 independent experiments
[2] = read-out: Cyclin B FP IC50; 10 nM Cyclin B1/Cdk1, 2 nM FAM probe; average of 2-3 independent experiments
[3] = 8 nM Cyclin A2/Cdk2, 2 nM FAM probe, average of 2-3 independent experiments, read-out: Cyclin A FP IC50
[4] = 10 nM Cyclin B1/Cdk1, 2 nM FAM probe; average of 2-3 independent experiments; read-out: Cyclin B FP IC50
[5] = 10 nM Cyclin E1/Cdk2, 2 nM FAM probe, average of 2-3 independent experiments, read-out: Cyclin E FP IC50

SMILES | IC50 (CyclinA2/CDK2; [1]) [nM] | IC50 (CyclinB1/CDK1; [2]) [nM] | IC50 (CyclinE1/CDK2) [nM] | GI50 (NCI-H1048 cells) [nM] | GI50 (OVCAR3 cells) [nM] | IC50 (CyclinA2/CDK2) [nM] | IC50 (CyclinA2/CDK2; [3]) [nM] | IC50 (CyclinB1/CDK1; [4]) [nM] | IC50 (CyclinE1/CDK2; [5]) [nM]
CC(C)C[C@@H]1NC(=O)[C@@H](N(C)C(=O)[C@@H](NC(=O)[C@@H]2C[C@@H](F)CN2C(=O)C(C)(C)C(F)(F)F)C2CC2)CCCCCCCN(C)C(=O)[C@H](Cc2cc(Cl)ccc2-c2cnn(C)c2)N(C)C1=O [Example 204] ({Pivaloyl(3,3,3-F3)}-[Pro(trans-4-F)][Gly(cPr)][NMehhhLys(Me)]L[X22]; lactam 3-C) | 20 | 20 | 160 | 10 | 10 | – | – | – | –
CC(C)C[C@@H]1NC(=O)[C@@H](N(C)C(=O)[C@@H](NC(=O)[C@@H]2C[C@@H](F)CN2C(=O)C2(C(F)(F)F)CC(F)(F)C2)C2CC2)CCCCCCCN(C)C(=O)[C@H](Cc2cc(Cl)ccc2-c2ccn(C)n2)N(C)C1=O [Example 205] ({cBuCO(3,3-F2-1-CF3)}-[Pro(trans-4-F)][Gly(cPr)][NMehhhLys(Me)]L[X188]; lactam 3-C) | – | 20 | 480 | 20 | 30 | 30 | – | – | –
Cc1ncc(-c2ccc(Cl)cc2C[C@H]2C(=O)N(C)CCCCCCC[C@H](N(C)C(=O)[C@@H](NC(=O)[C@@H]3C[C@@H](F)CN3C(=O)C3(C(F)(F)F)CC(F)(F)C3)C3CC3)C(=O)N[C@@H](CC(C)C)C(=O)N2C)o1 [Example 206] ({cBuCO(3,3-F2-1-CF3)}-[Pro(trans-4-F)][Gly(cPr)][NMehhhLys(Me)]L[X168]; lactam 3-C) | 20 | 20 | 200 | 10 | 20 | – | – | – | –
CC(C)C[C@@H]1NC(=O)[C@@H](N(C)C(=O)[C@@H](NC(=O)[C@@H]2C[C@@H](F)CN2C(=O)C2(C(F)(F)F)CC(F)(F)C2)C2CC2)CCCCCCCN(C)C(=O)[C@H](Cc2cc(Cl)ccc2-c2ccc[nH]c2=O)N(C)C1=O [Example 208] ({cBuCO(3,3-F2-1-CF3)}-[Pro(trans-4-F)][Gly(cPr)][NMehhhLys(Me)]L[X123]; lactam 3-C) | – | 20 | 6400 | 830 | 1960 | 210 | – | – | –
CC(C)C[C@@H]1NC(=O)[C@@H](N(C)C(=O)[C@@H](NC(=O)[C@@H]2C[C@@H](F)CN2C(=O)C2(C(F)(F)F)CC(F)(F)C2)C2CC2)CCCCCCCN(C)C(=O)[C@H](Cc2cc(Cl)ccc2C2=CCOC2)N(C)C1=O [Example 209] ({cBuCO(3,3-F2-1-CF3)}-[Pro(trans-4-F)][Gly(cPr)][NMehhhLys(Me)]L[X199]; lactam 3-C) | 20 | 20 | 540 | 10 | 20 | – | – | – | –
Cc1[nH]ncc1-c1ccc(Cl)cc1C[C@H]1C(=O)N(C)CCCCCCC[C@H](N(C)C(=O)[C@@H](NC(=O)[C@@H]2C[C@@H](F)CN2C(=O)C2(C(F)(F)F)CC(F)(F)C2)C2CC2)C(=O)N[C@@H](CC(C)C)C(=O)N1C [Example 211] ({cBuCO(3,3-F2-1-CF3)}-[Pro(trans-4-F)][Gly(cPr)][NMehhhLys(Me)]L[X139]; lactam 3-C) | – | 20 | 1110 | 20 | 30 | 50 | – | – | –
Cc1oncc1-c1ccc(Cl)cc1C[C@H]1C(=O)N(C)CCCCCCC[C@H](N(C)C(=O)[C@@H](NC(=O)[C@@H]2C[C@@H](F)CN2C(=O)C2(C(F)(F)F)CC(F)(F)C2)C2CC2)C(=O)N[C@@H](CC(C)C)C(=O)N1C [Example 212] ({cBuCO(3,3-F2-1-CF3)}-[Pro(trans-4-F)][Gly(cPr)][NMehhhLys(Me)]L[X154]; lactam 3-C) | – | 20 | 4160 | 80 | 80 | 70 | – | – | –
CC(C)C[C@@H]1NC(=O)[C@@H](N(C)C(=O)[C@@H](NC(=O)[C@@H]2C[C@@H](F)CN2C(=O)C2(C(F)(F)F)CC(F)(F)C2)C2CC2)CCCCCCCNC(=O)[C@H](Cc2cc(F)ccc2-c2cnn(C3CC3)c2)N(C)C1=O [Example 213] ({cBuCO(3,3-F2-1-CF3)}-[Pro(trans-4-F)][Gly(cPr)][NMe(hhhLys)]L[X26]; lactam 3-C) | – | – | – | 10 | 10 | – | 30 | 20 | 190
CC(C)C[C@@H]1NC(=O)[C@@H](N(C)C(=O)[C@@H](NC(=O)[C@@H]2C[C@@H](F)CN2C(=O)C2(C(F)(F)F)CC(F)(F)C2)C2CC2)CCCCCCCNC(=O)[C@H](Cc2cc(F)ccc2-c2cnn3c2CCC3)N(C)C1=O [Example 214] ({cBuCO(3,3-F2-1-CF3)}-[Pro(trans-4-F)][Gly(cPr)][NMe(hhhLys)]L[X180]; lactam 3-C) | – | 20 | 500 | 10 | 10 | 50 | – | – | –
CC(C)C[C@@H]1NC(=O)[C@@H](N(C)C(=O)[C@@H](NC(=O)[C@@H]2C[C@@H](F)CN2C(=O)C2(C(F)(F)F)CC(F)(F)C2)C2CC2)CCCCCCCNC(=O)[C@H](Cc2cc(F)ccc2-c2cnn(C)c2)N(C)C1=O [Example 215] ({cBuCO(3,3-F2-1-CF3)}-[Pro(trans-4-F)][Gly(cPr)][NMe(hhhLys)]L[X112]; lactam 3-C) | 20 | 20 | 200 | 10 | 10 | – | – | – | –
CC(=O)N1CC=C(c2ccc(F)cc2C[C@H]2C(=O)NCCCCCCC[C@H](N(C)C(=O)[C@@H](NC(=O)[C@@H]3C[C@@H](F)CN3C(=O)C3(C(F)(F)F)CC(F)(F)C3)C3CC3)C(=O)N[C@@H](CC(C)C)C(=O)N2C)CC1 [Example 217] ({cBuCO(3,3-F2-1-CF3)}-[Pro(trans-4-F)][Gly(cPr)][NMe(hhhLys)]L[X172]; lactam 3-C) | – | – | – | 10 | 20 | – | 30 | 20 | 760
CC(C)COc1ncc(Cl)cc1C[C@H]1C(=O)N(C)CCCCCCC[C@H](N(C)C(=O)[C@@H](NC(=O)[C@@H]2C[C@@H](F)CN2C(=O)[C@@]2(C(F)(F)F)CCCCO2)C2CC2)C(=O)N[C@@H](CC(C)C)C(=O)N1C [Example 229] ({Oxane2carbonyl(2R-CF3)}-[Pro(trans-4-F)][Gly(cPr)][NMehhhLys(Me)]L[NMe3Pal(2-OiBu,5-Cl)]; lactam 3-C) | 20 | 20 | 100 | 10 | 20 | – | – | – | –
CC(C)C[C@@H]1NC(=O)[C@@H](N(C)C(=O)[C@@H](NC(=O)[C@@H]2C[C@@H](F)CN2C(=O)C2(C(F)(F)F)CC(F)(F)C2)C2CC2)CCCCCCCN(C)C(=O)[C@H](Cc2cc(Cl)ccc2-c2cn(C)cn2)N(C)C1=O [Example 242] ({cBuCO(3,3-F2-1-CF3)}-[Pro(trans-4-F)][Gly(cPr)][NMehhhLys(Me)]L[X135]; lactam 3-C) | – | 20 | 700 | 30 | 20 | 30 | – | – | –
CC(C)C[C@@H]1NC(=O)[C@@H](N(C)C(=O)[C@@H](NC(=O)[C@@H]2C[C@@H](F)CN2C(=O)C2(C(F)(F)F)CC(F)(F)C2)C2CC2)CCCCCCCN(C)C(=O)[C@H](Cc2cc(F)cnc2-c2cnn(C)c2)N(C)C1=O [Example 244] ({cBuCO(3,3-F2-1-CF3)}-[Pro(trans-4-F)][Gly(cPr)][NMehhhLys(Me)]L[X131]; lactam 3-C) | – | – | – | 100 | 40 | – | 60 | 20 | 580
CC(C)C[C@@H]1NC(=O)[C@@H](N(C)C(=O)[C@@H](NC(=O)[C@@H]2C[C@@H](F)CN2C(=O)C2(C(F)(F)F)CCC2)C2CC2)CCCCCCCN(C)C(=O)[C@H](Cc2cc(F)cnc2-c2cnn(C)c2)N(C)C1=O [Example 245] ({Cyclobutanecarbonyl(1-CF3)}-[Pro(trans-4-F)][Gly(cPr)][NMehhhLys(Me)]L[X131]; lactam 3-C) | – | 20 | 220 | 80 | 20 | 40 | – | – | –
CC(C)C[C@@H]1NC(=O)[C@@H](N(C)C(=O)[C@@H](NC(=O)[C@@H]2C[C@@H](F)CN2C(=O)C2(C(F)(F)F)CC(F)(F)C2)C2CC2)CCCCCCCN(C)C(=O)[C@H](Cc2cc(Cl)cnc2-c2cnn(C)c2)N(C)C1=O [Example 246] ({cBuCO(3,3-F2-1-CF3)}-[Pro(trans-4-F)][Gly(cPr)][NMehhhLys(Me)]L[X174]; lactam 3-C) | 20 | 20 | 640 | 30 | 10 | – | – | – | –
